# Data reported in article PMC9687610, “Adenosine-Mimicking Derivatives of 3-Aminopyrazine-2-Carboxamide: Towards Inhibitors of Prolyl-tRNA Synthetase with Antimycobacterial Activity” (Biomolecules, 2022).
# pIC50: −log10 of the molar value. Like-named read-outs stand apart in the source and are kept apart here.
# How the values were obtained:
# [1] = tested on: Mycobacterium tuberculosis H37Ra ITM-M006710 (ATCC 9431); test: Microplate Alamar Blue Assay (MABA), Mtb H37Ra; type: cell-based; conditions: Mycobacterium tuberculosis, 120 h, pH 6.6, MABA, Middlebrook 7H9 broth pH 6.6, resazurin after 120 h; read-out: Mtb H37Ra MIC
# [2] = tested on: Mycobacterium smegmatis DSM 43465 (ATCC 607); test: Microplate Alamar Blue Assay (MABA), M. smegmatis; type: cell-based; conditions: Mycolicibacterium smegmatis, read-out: M. smegmatis MIC
# [3] = tested on: M. aurum DSM 43999 (ATCC 23366); test: Microplate Alamar Blue Assay (MABA), M. aurum; type: cell-based; conditions: Mycolicibacterium aurum, read-out: M. aurum MIC
# [4] = tested on: Staphylococcus aureus subsp. aureus CCM 4223 (ATCC 29213); test: Antibacterial microdilution broth (EUCAST), SA; type: cell-based; conditions: Staphylococcus aureus
# [5] = tested on: Staphylococcus aureus subsp. aureus methicillin-resistant (MRSA) CCM 4750 (ATCC 43300); test: Antibacterial microdilution broth (EUCAST), MRSA; type: cell-based; conditions: Staphylococcus aureus
# [6] = tested on: Staphylococcus epidermidis CCM 4418 (ATCC 12228); test: Antibacterial microdilution broth (EUCAST), SE; type: cell-based
# [7] = tested on: Enterococcus faecalis CCM 4224 (ATCC 29212); test: Antibacterial microdilution broth (EUCAST), EF; type: cell-based; conditions: Enterococcus faecalis
# [8] = tested on: Escherichia coli CCM 3954 (ATCC 25922); test: Antibacterial microdilution broth (EUCAST), EC; type: cell-based; conditions: Escherichia coli
# [9] = tested on: Acinetobacter baumannii DSM 30007 (ATCC 19606); test: Antibacterial microdilution broth (EUCAST), ACI; type: cell-based; conditions: Acinetobacter baumannii
# [10] = tested on: Pseudomonas aeruginosa CCM 3955 (ATCC 27853); test: Antibacterial microdilution broth (EUCAST), PA; type: cell-based; conditions: Pseudomonas aeruginosa
# [11] = tested on: Candida albicans CCM 8320 (ATCC 24433); test: Antifungal microdilution broth (EUCAST), CA; type: cell-based; conditions: Candida albicans
# [12] = tested on: Candida krusei CCM 8271 (ATCC 6258); test: Antifungal microdilution broth (EUCAST), CK; type: cell-based; conditions: Pichia kudriavzevii
# [13] = tested on: Candida parapsilosis CCM 8260 (ATCC 22019); test: Antifungal microdilution broth (EUCAST), CP; type: cell-based; conditions: Lodderomyces parapsilosis
# [14] = tested on: Candida tropicalis CCM 8264 (ATCC 750); test: Antifungal microdilution broth (EUCAST), CT; type: cell-based; conditions: Candida tropicalis
# [15] = tested on: Aspergillus fumigatus ATCC 204305; test: Antifungal microdilution broth (EUCAST), AF; type: cell-based; conditions: Aspergillus fumigatus, ATCC204305
# [16] = tested on: Aspergillus flavus CCM 8363; test: Antifungal microdilution broth (EUCAST), AFla; type: cell-based; conditions: Aspergillus flavus, CCM8363
# [17] = tested on: Lichtheimia corymbifera CCM 8077; test: Antifungal microdilution broth (EUCAST), LC; type: cell-based; conditions: Lichtheimia corymbifera, CCM8077
# [18] = tested on: Trichophyton interdigitale CCM 8377 (ATCC 9533); test: Antifungal microdilution broth (EUCAST), TI; type: cell-based; conditions: Trichophyton interdigitale
# [19] = tested on: HepG2 human hepatocellular carcinoma cells; test: In vitro HepG2 cytotoxicity (CellTiter 96); conditions: for pIC50: Homo sapiens, HepG2, 24 h, read-out: HepG2 IC50, 24 h incubation, * limit = highest evaluated concentration (precipitation in medium), ** over the 1000 µM limit
# [20] = tested on: Klebsiella pneumoniae CCM 4415 (ATCC 10031); test: Antibacterial microdilution broth (EUCAST), KP; conditions: for KP MIC: read after 24 h; for MIC: Klebsiella pneumoniae
# [21] = read after 24 h, read-out: SA MIC
# [22] = read after 24 h, read-out: MRSA MIC
# [23] = read after 24 h, read-out: SE MIC
# [24] = read after 24 h, read-out: EF MIC
# [25] = read after 24 h, read-out: EC MIC
# [26] = read after 24 h, read-out: ACI MIC
# [27] = read after 24 h, read-out: PA MIC
# [28] = read after 24 h, read-out: CA MIC
# [29] = read after 24 h, read-out: CK MIC
# [30] = read after 24 h, read-out: CP MIC
# [31] = read after 24 h, read-out: CT MIC
# [32] = read after 24 h, read-out: AF MIC
# [33] = read after 24 h, read-out: AFla MIC
# [34] = read after 24 h, read-out: LC MIC
# [35] = internal quality control, 90% growth inhibition, 24 h, 530 nm, read-out: MIC, spectrophotometric detection*
# [36] = internal quality control, no visible growth, 24 h, read-out: MIC, visual detection**
# [37] = internal quality control, 90% growth inhibition, 48 h (moulds), 530 nm, read-out: MIC, spectrophotometric detection*
# [38] = internal quality control, no visible growth, 48 h (moulds), read-out: MIC, visual detection**
# [39] = internal quality control, 95% growth inhibition, 24 h, 530 nm, read-out: MIC, spectrophotometric detection
# [40] = internal quality control, no visible growth, 24 h, read-out: MIC, visual detection
# [41] = internal quality control, 50% growth inhibition, 24 h, 530 nm, read-out: MIC, spectrophotometric detection***
# [42] = internal quality control, 50% growth inhibition, 48 h (moulds), 530 nm, read-out: MIC, spectrophotometric detection***
Compound,MIC [1],"MIC ([2]; MABA, resazurin after 48 h)","MIC ([3]; MABA, resazurin after 72 h)","MIC [4, 21]","MIC [5, 22]","MIC [6, 23]","MIC [7, 24]","MIC [8, 25]","MIC [9, 26]","MIC [10, 27]","MIC [11, 28]","MIC [12, 29]","MIC [13, 30]","MIC [14, 31]","MIC [15, 32]","MIC [16, 33]","MIC [17, 34]","MIC ([18]; 72 h, read-out: TI MIC)",pIC50 [19],KP MIC [20],other results
NC(=O)c1nccnc1NC(=O)c1ccccc1 [Compound 1],250 µg/mL,≥ 500 µg/mL,≥ 500 µg/mL,> 500 µM,> 500 µM,> 500 µM,> 500 µM,> 500 µM,> 500 µM,> 500 µM,> 500 µM,> 500 µM,> 500 µM,> 500 µM,> 500 µM,> 500 µM,> 500 µM,> 500 µM,< 3.60,> 500 µM,
NC(=O)c1nccnc1NC(=O)c1ccccc1Cl [Compound 13],≥ 500 µg/mL,≥ 500 µg/mL,≥ 500 µg/mL,> 500 µM,> 500 µM,> 500 µM,> 500 µM,> 500 µM,> 500 µM,> 500 µM,> 500 µM,> 500 µM,> 500 µM,> 500 µM,> 500 µM,> 500 µM,> 500 µM,> 500 µM,< 3.60,> 500 µM,
NC(=O)c1nccnc1NC(=O)c1cccc(Cl)c1 [Compound 14],≥ 125 µg/mL,,,> 125 µM,> 125 µM,> 125 µM,> 125 µM,> 125 µM,> 125 µM,> 125 µM,> 125 µM,> 125 µM,> 125 µM,> 125 µM,> 125 µM,> 125 µM,> 125 µM,> 125 µM,< 4.60,> 125 µM,MIC ([2]; 48 h): ≥ 125 µg/mL; MIC ([3]; 72 h): ≥ 125 µg/mL; solubility in the testing medium (in words) ([19]; HepG2 cell culture medium): low solubility
"O=C(NC1Cc2ccccc2C1)c1nccnc1NC(=O)C1CCCCC1 [Compound 38, reference compound]",62.5 µg/mL,≥ 500 µg/mL,≥ 500 µg/mL,,,,,,,,,,,,,,,,4.71,,
"C[C@@H]1[C@H](O)[C@@H](C)/C=C/C=C/C=C/C=C/C=C/C=C/C=C/[C@H](O[C@@H]2O[C@H](C)[C@@H](O)[C@H](N)[C@@H]2O)C[C@@H]2O[C@](O)(C[C@@H](O)C[C@@H](O)[C@H](O)CC[C@@H](O)C[C@@H](O)CC(=O)O[C@H]1C)C[C@H](O)[C@H]2C(=O)O [amphotericin B, reference compound]",,,,,,,,,,,,,,,,,,,,,"MIC [11, 35]: 0.5 µg/mL; MIC [11, 36]: 0.5 µg/mL; MIC [12, 35]: 0.5 µg/mL; MIC [12, 36]: 0.5 µg/mL; MIC [13, 35]: 0.5 µg/mL; MIC [13, 36]: 0.5 µg/mL; MIC [14, 35]: 1 µg/mL; MIC [14, 36]: 1 µg/mL; MIC [15, 37]: 1 µg/mL; MIC [15, 38]: 1 µg/mL; MIC [16, 37]: 4 µg/mL; MIC [16, 38]: 4 µg/mL; MIC [17, 37]: 0.125 µg/mL; MIC [17, 38]: 0.125 µg/mL; MIC [18, 37]: 1 µg/mL; MIC [18, 38]: 1 µg/mL"
"CNC(C)C1CCC(N)C(OC2C(N)CC(N)C(OC3OCC(C)(O)C(NC)C3O)C2O)O1 (centres unmarked) [gentamicin, reference compound]",,,,,,,,,,,,,,,,,,,,,"MIC [4, 39]: 1 µg/mL; MIC [4, 40]: 0.5 µg/mL; MIC [5, 39]: > 8 µg/mL; MIC [5, 40]: > 8 µg/mL; MIC [6, 39]: 0.125 µg/mL; MIC [6, 40]: 0.125 µg/mL; MIC [7, 39]: > 8 µg/mL; MIC [7, 40]: > 8 µg/mL; MIC [8, 39]: 1 µg/mL; MIC [8, 40]: 1 µg/mL; MIC [9, 39]: 8 µg/mL; MIC [9, 40]: 8 µg/mL; MIC [10, 39]: 0.5 µg/mL; MIC [10, 40]: 0.5 µg/mL; MIC ([20]; 24 h, read-out: MIC, visual detection): 0.5 µg/mL; MIC ([20]; ATCC10031|CCM4415, 24 h, read-out: MIC, spectrophotometric detection): 0.5 µg/mL"
"C[C@@H](c1ncncc1F)[C@](O)(Cn1cncn1)c1ccc(F)cc1F [voriconazole, reference compound]",,,,,,,,,,,,,,,,,,,,,"MIC [11, 41]: 0.03 µg/mL; MIC [11, 36]: > 16 µg/mL; MIC [12, 41]: 0.25 µg/mL; MIC [12, 36]: > 16 µg/mL; MIC [13, 41]: 0.03 µg/mL; MIC [13, 36]: > 16 µg/mL; MIC [14, 41]: 0.0625 µg/mL; MIC [14, 36]: > 16 µg/mL; MIC [15, 42]: 0.25 µg/mL; MIC [15, 38]: 1 µg/mL; MIC [16, 42]: 1 µg/mL; MIC [16, 38]: > 16 µg/mL; MIC [17, 42]: > 16 µg/mL; MIC [17, 38]: > 16 µg/mL; MIC [18, 42]: > 16 µg/mL; MIC [18, 38]: > 16 µg/mL"
